The source made the active and inactive calls. Bounds are passed on as bounds.

Consider 4 compounds from ChEMBL document CHEMBL1201862, “PubChem BioAssay data set” (2004).

What all share (type): functional
Test [1] concerns the target Intestinal-type alkaline phosphatase (Mus musculus, UniProt P24822). Put plainly: mouse intestinal alkaline phosphatase activators, dose response, biochemical, luminescence, uHTS hits (AID 488783).
A short description of test [2]: mitochondrial function rescue without frataxin homolog – Friedreich's ataxia, plus single-dose screen, dose response (AID 1465).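 Further: yeast depleted of Yfh1p frataxin homolog grown on glycerol needing respiration; WST-1 tetrazolium dye reduction as measure of cellular dehydrogenase metabolic activity.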
The target in test [3] is T1, Alkaline phosphatase, tissue-nonspecific isozyme (Homo sapiens, UniProt P05186).
T1 sequence (P05186 whole entry): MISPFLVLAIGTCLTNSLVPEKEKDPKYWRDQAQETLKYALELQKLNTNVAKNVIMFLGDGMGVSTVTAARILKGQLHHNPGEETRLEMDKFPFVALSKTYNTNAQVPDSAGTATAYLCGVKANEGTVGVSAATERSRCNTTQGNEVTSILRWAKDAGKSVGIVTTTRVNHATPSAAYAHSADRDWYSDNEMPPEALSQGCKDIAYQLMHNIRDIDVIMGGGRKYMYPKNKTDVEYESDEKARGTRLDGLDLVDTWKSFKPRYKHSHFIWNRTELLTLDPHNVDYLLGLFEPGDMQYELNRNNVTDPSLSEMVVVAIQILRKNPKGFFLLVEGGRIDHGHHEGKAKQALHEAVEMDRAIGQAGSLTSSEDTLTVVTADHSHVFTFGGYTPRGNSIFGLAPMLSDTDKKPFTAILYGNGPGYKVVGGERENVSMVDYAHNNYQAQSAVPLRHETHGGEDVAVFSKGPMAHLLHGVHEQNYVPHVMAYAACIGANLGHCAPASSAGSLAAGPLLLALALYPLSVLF
In words: activation of tissue-nonspecific alkaline phosphatase – biochemical, TNAP isozyme, mouse IAP uHTS hits, selectivity assay for mouse IAP activator project, dose response (AID 488880).

The target of test [4] is 26S proteasome non-ATPase regulatory subunit 14 (Homo sapiens, UniProt O00487). Put plainly: inhibition of proteasome subunit RPN11 – biochemical, fluorescence polarization, uHTS hits, confirmation (AID 602368). In general terms: In fluorescence polarisation assays a small probe gives low polarisation when free and higher when bound to something large.
Sequence of 26S proteasome non-ATPase regulatory subunit 14 (O00487 whole entry): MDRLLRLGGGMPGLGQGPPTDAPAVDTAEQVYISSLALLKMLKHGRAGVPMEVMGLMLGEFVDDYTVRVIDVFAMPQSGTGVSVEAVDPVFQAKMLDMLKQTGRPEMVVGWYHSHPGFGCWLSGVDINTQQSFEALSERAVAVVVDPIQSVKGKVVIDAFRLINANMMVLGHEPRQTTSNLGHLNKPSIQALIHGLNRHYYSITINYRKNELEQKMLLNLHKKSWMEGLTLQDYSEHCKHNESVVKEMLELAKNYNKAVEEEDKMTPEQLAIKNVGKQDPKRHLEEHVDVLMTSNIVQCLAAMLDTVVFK
For test [5], the target named is Intestinal-type alkaline phosphatase (Homo sapiens, UniProt P09923). In words: activation of human intestinal alkaline phosphatase – biochemical, dose response (AID 488873).
Sequence of Intestinal-type alkaline phosphatase (Homo sapiens, UniProt P09923) (P09923 whole entry): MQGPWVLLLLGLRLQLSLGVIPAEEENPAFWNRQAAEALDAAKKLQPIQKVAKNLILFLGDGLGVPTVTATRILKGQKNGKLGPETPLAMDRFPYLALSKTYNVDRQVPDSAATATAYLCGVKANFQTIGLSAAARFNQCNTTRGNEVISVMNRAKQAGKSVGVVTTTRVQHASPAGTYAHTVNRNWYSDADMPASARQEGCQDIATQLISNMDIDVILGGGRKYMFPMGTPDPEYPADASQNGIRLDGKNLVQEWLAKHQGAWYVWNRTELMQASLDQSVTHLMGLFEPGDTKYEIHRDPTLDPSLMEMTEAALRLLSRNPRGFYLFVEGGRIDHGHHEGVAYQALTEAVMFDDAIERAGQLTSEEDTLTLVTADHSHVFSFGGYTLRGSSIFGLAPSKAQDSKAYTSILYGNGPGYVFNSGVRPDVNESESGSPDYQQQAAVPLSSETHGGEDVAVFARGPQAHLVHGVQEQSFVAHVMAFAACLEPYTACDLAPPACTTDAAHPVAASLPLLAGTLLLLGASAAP
The next test has as its target Prothrombin (Bos taurus, UniProt P00735). Put plainly: thrombin protease inhibitors – biochemical, fluorescence polarization, uHTS hits, dose response (AID 602369).
Test [6] addresses T2, Rac GTPase-activating protein 1 (Homo sapiens, UniProt Q9H0H5).
T2 sequence (Q9H0H5 whole entry): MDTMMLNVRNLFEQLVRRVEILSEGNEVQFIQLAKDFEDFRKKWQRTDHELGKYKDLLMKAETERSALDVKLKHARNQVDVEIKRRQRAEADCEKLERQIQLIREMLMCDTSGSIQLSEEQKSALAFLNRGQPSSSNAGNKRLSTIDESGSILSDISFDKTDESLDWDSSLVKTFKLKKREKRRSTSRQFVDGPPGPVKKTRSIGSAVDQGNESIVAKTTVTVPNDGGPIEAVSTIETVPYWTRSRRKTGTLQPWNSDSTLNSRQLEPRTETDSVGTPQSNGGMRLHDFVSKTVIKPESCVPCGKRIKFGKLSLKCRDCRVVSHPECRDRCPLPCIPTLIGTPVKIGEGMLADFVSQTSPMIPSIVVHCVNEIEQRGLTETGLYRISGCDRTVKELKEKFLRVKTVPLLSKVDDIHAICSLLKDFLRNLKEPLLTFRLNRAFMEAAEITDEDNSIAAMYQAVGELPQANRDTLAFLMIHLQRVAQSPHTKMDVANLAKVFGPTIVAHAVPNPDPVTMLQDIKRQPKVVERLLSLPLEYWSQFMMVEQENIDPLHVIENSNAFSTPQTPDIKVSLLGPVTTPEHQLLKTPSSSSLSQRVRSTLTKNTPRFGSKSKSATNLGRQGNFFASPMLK
Put plainly: blockers of MgcRacGAP-driven Rac1 GTP hydrolysis – biochemical, ADP Hunter fluorescence, primary and confirmatory, confirmation (AID 624330).

For test [7], the target named is 72 kDa type IV collagenase (Homo sapiens, UniProt P08253). Put plainly: Dose Response validation of uHTS RPN11 inhibitor hits using a MMP-2 Fluorescence assay.
Sequence of 72 kDa type IV collagenase (P08253 whole entry): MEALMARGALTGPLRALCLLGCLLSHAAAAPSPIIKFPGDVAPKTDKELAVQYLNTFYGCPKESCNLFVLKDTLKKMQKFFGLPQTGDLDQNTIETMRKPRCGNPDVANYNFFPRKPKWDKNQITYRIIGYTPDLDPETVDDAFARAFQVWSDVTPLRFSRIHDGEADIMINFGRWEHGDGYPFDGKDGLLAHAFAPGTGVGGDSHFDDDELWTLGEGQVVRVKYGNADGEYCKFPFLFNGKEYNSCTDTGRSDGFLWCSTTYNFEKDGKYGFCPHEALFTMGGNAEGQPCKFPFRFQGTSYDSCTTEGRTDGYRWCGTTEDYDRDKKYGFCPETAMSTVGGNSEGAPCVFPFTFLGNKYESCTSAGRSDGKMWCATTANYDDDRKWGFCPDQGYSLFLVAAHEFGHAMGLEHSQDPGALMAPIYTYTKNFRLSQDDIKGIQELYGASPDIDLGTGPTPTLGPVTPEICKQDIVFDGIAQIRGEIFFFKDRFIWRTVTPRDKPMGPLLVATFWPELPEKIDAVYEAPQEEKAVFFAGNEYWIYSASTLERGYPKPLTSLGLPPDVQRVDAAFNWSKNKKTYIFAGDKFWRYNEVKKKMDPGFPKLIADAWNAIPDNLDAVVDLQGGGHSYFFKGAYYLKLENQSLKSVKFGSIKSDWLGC
In another test the target is Hexokinase (Trypanosoma brucei, UniProt Q38C41). In words: Confirmation assay for inhibitors of Trypanosoma brucei hexokinase 1-Analogue-first series. [Related pubchem assays (depositor defined):AID1430, AID1632, AID2516, AID2560, AID2579, AID2600, AID449725, AID492951].
Sequence of Hexokinase (Q38C41 whole entry): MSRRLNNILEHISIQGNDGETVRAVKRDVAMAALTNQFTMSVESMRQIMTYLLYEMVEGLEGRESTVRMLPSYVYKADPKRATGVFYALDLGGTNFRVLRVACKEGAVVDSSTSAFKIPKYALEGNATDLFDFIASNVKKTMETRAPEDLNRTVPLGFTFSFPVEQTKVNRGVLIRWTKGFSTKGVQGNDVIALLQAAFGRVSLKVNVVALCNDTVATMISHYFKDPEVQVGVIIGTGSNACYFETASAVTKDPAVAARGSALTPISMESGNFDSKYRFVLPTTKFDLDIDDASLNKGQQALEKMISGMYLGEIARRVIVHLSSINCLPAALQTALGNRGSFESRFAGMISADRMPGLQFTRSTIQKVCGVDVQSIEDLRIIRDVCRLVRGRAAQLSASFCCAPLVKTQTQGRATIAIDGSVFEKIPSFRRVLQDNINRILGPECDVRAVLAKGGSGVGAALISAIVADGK
The next test deals with Hexokinase-1 (Homo sapiens, UniProt P19367). In words: HK1 enzyme activation by HKDC1 hits – biochemical, selectivity assay for HKDC1 activator project, dose response (AID 504762).
Sequence of Hexokinase-1 (P19367 whole entry): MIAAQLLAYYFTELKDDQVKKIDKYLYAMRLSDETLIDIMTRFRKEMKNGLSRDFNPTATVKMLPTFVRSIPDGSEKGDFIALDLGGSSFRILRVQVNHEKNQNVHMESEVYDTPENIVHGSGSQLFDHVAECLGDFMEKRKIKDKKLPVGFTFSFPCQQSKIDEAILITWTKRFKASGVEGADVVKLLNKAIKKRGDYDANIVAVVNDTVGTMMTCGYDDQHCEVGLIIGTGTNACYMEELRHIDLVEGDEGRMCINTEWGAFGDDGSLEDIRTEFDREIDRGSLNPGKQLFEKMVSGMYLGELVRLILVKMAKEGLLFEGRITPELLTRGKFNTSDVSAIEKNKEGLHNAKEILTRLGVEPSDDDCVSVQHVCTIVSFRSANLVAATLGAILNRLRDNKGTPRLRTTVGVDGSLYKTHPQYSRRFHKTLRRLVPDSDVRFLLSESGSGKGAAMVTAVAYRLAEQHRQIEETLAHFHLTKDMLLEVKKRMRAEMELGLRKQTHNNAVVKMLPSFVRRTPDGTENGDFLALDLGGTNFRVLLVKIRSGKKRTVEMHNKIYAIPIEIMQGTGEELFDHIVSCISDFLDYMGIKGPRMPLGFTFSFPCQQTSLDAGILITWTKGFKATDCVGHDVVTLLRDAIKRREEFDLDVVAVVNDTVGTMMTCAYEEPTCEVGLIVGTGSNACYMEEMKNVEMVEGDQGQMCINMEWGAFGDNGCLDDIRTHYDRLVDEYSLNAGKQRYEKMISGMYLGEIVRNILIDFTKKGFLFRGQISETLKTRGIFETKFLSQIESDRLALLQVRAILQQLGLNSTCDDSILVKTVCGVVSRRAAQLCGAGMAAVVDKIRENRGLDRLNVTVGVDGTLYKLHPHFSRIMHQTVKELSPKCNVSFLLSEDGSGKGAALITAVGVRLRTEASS
A further test addresses T3, Hexokinase HKDC1 (Homo sapiens, UniProt Q2TB90).
T3 sequence (Q2TB90 whole entry): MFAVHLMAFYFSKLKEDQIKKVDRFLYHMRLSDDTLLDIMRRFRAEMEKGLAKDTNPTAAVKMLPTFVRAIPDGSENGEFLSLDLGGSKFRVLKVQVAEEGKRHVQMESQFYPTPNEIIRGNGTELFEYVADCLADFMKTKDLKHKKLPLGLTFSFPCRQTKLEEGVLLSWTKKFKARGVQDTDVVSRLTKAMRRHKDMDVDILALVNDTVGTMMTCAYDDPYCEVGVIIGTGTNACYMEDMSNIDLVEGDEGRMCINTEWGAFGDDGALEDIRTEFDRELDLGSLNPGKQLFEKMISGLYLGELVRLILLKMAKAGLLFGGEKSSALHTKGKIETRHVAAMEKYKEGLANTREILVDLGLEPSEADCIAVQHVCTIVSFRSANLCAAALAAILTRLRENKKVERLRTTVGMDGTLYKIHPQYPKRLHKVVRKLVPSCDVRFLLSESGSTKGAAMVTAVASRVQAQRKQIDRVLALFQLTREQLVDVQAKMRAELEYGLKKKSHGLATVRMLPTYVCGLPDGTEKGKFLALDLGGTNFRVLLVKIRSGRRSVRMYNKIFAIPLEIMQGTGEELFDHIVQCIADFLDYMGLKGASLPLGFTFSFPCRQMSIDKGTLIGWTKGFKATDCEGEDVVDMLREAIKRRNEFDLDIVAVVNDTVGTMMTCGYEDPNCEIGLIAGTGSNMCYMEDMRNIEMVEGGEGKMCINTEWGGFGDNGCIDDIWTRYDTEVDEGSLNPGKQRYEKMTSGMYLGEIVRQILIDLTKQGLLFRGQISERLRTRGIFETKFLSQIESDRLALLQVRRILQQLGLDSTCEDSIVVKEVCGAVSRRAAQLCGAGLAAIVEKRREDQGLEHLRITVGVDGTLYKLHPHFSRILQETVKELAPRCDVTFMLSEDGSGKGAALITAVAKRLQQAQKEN
In words: inhibition of HKDC1 glucose phosphorylation – biochemical, W721R variant, dose response (AID 504729).

For test [8], the target named is T4, Cannabinoid receptor 1 (Homo sapiens, UniProt P21554). In words: SAR analysis of agonists of the Cannabinoid Receptor 1 using an Image-Based Assay - Set 4. [Related pubchem assays (depositor defined):AID2013, AID2026].
T4 sequence (P21554 whole entry): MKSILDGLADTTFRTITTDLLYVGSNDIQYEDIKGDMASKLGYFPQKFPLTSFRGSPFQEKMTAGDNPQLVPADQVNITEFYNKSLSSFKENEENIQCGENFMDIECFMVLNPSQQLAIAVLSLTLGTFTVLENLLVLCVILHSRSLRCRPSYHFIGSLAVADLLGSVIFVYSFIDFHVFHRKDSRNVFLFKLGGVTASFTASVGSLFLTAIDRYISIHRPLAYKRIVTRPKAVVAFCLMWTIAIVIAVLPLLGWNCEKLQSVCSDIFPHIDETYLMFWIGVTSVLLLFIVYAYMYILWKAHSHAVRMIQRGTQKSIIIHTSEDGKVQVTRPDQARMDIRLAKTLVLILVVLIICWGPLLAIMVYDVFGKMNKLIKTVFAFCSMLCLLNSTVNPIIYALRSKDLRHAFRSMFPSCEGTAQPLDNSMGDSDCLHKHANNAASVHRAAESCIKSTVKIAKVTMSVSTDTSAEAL
Test [9] addresses T5, Cannabinoid receptor 2 (Homo sapiens, UniProt P34972). In words: SAR analysis of antagonists of the Cannabinoid Receptor 2 using an Image-Based Assay - Set 3. [Related pubchem assays (depositor defined):AID2013, AID2026].
The target in test [10] is T4, Cannabinoid receptor 1. In words: SAR analysis of antagonists of the Cannabinoid Receptor 1 using an Image-Based Assay - Set 4. [Related pubchem assays (depositor defined):AID2013, AID2026].
Test [11] has as its target T6, G-protein coupled receptor 35 (Homo sapiens, UniProt Q9HC97). In words: SAR analysis of Agonists of the GPR35 Receptor using an Image-Based Assay - Set 4. [Related pubchem assays (depositor defined):AID2013, AID2026].
Test [12] addresses T6, G-protein coupled receptor 35. In words: SAR analysis of Antagonists of the GPR35 Receptor using an Image-Based Assay - Set 6. [Related pubchem assays (depositor defined):AID2013, AID2026].
In test [13] the target is T5, Cannabinoid receptor 2. Put plainly: SAR analysis of agonists of the Cannabinoid Receptor 2 using an Image-Based Assay - Set 3. [Related pubchem assays (depositor defined):AID2013, AID2026].
The target in test [14] is G-protein coupled receptor 55 (Homo sapiens, UniProt Q9Y2T6). Put plainly: SAR Analysis of Selective Antagonists of GPR55 using an Image-Based Assay - Set 4. [Related pubchem assays (depositor defined):AID2013, AID2026].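 Further: antagonism of response to 5 µM lysophosphatidylinositol agonist.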
Sequence of G-protein coupled receptor 55 (Q9Y2T6 whole entry): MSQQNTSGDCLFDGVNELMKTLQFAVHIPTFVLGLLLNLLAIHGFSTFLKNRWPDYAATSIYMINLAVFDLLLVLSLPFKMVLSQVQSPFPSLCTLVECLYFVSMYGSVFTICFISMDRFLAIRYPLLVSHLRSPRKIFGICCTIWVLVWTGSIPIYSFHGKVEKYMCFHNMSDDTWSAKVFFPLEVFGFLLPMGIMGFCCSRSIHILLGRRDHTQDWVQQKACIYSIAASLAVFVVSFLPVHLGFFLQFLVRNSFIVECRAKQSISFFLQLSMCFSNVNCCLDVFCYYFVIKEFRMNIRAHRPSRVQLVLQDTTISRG

T5 sequence (P34972 whole entry): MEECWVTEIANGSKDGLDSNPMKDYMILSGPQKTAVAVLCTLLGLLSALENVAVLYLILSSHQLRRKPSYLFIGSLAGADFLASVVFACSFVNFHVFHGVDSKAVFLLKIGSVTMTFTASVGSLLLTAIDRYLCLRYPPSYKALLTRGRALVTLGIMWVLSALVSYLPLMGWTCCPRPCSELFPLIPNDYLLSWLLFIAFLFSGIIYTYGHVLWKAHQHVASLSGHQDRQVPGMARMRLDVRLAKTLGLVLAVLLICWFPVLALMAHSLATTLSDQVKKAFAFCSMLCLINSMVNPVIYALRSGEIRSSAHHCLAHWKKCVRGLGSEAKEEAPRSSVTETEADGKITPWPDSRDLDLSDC
T6 sequence (Q9HC97 whole entry): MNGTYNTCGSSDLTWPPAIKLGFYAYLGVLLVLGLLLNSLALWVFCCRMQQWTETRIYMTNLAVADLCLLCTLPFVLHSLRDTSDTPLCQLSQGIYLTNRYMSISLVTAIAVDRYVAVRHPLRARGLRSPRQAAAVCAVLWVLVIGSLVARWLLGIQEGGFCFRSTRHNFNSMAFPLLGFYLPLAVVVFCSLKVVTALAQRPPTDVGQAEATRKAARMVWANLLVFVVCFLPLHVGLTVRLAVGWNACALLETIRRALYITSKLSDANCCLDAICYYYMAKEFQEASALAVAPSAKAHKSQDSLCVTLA
Sequence of Intestinal-type alkaline phosphatase (Mus musculus, UniProt P24822) (P24822 whole entry): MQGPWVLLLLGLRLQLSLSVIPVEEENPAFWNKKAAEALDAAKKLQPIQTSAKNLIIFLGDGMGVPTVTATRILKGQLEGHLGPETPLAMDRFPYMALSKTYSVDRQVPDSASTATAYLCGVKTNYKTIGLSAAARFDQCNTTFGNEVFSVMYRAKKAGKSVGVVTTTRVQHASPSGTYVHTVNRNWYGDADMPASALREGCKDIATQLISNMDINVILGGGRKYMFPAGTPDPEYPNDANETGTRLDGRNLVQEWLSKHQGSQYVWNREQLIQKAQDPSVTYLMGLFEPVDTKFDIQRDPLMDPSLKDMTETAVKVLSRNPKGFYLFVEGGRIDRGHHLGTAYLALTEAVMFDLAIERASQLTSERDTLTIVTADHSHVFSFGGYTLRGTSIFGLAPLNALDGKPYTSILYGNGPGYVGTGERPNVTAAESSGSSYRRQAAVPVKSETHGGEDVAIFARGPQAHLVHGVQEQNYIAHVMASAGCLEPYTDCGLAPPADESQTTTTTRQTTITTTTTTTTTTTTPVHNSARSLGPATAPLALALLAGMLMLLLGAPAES

What is called EC50 is the midpoint of the concentration-response curve. One may read the IC50 as the point on the concentration scale where inhibition reaches its midpoint. As for `Cc1cc(/C=C2\SC(=S)NC2=O)c(C)[nH]1`, the half-maximal effective concentration (EC50) is 56.6 µM (active) in [1], > 100 µM (active) in [2], 58.1 µM (active) in test [3] and 68 µM (active) in [5]. Further, the IC50 was 26.5 µM (active) in [4], 33 µM (active) on Prothrombin, 207 µM (active) in test [6] and 20.4 µM (active) in test [7].
In the case of `CC(C)c1ccc(C(=O)Nc2cc(Cl)ccc2C(=O)O)cc1`, on Hexokinase, the IC50 is 2.89 µM (active).
Regarding `O=C(CN(C(=O)CCC(=O)Nc1ccccn1)c1ccc2c(c1)OCO2)NCc1ccc(F)cc1`, the EC50 at Hexokinase-1 is > 80 µM (inactive). The IC50 on Hexokinase HKDC1 was > 80 µM (inactive).
For `O=C(Cc1ccc(F)cc1)N1CCC(n2nc(-c3ccccc3)oc2=O)CC1`, the EC50 (on Cannabinoid receptor 1 [8]; in [11]; at Cannabinoid receptor 2 [13]) was > 32 µM (inactive) each time. Also, the IC50 on Cannabinoid receptor 2 [9] is > 32 µM (inactive); at Cannabinoid receptor 1 [10], 11.7 µM (inactive); in test [12] it was > 32 µM (inactive); in test [14], > 32 µM (inactive).
